IC50 data for five molecules are collected here from ChEMBL document CHEMBL4418285, “1-cyano-pyrrolidine compounds as usp30 inhibitors” (2018).

Test [1] deals with T1, Ubiquitin carboxyl-terminal hydrolase 30 (Homo sapiens, UniProt Q70CQ3).
T1 sequence (Q70CQ3 whole entry): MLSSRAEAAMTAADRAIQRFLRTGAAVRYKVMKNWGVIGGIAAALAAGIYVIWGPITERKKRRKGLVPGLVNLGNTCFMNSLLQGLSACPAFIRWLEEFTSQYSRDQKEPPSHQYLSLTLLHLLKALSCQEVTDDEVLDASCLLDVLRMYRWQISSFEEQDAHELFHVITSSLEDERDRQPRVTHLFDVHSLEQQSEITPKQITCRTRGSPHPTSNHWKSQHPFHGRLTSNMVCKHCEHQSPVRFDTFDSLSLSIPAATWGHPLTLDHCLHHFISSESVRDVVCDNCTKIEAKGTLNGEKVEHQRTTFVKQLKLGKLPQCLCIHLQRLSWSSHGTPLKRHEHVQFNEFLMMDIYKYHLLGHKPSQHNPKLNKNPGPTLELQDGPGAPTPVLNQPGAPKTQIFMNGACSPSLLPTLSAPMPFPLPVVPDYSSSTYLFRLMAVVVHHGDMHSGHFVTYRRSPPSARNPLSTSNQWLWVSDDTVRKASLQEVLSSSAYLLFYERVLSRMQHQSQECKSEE
The test is described as follows: Inhibition of untagged human USP30 catalytic domain (57 to 517 residues) expressed in Escherichia coli using TAMRA labeled ubiquitin peptide as substrate preincubated for 30 min followed by substrate addition and measured after 2 hrs by fluorescence polarization assay.

The target of test [2] is T1, Ubiquitin carboxyl-terminal hydrolase 30. The test is described as follows: Inhibition of human USP30 catalytic domain (57 to 517 residues) using ubiquitin-rhodamine 110 as substrate preincubated for 30 min followed by substrate addition and measured after 2 hrs by fluorescence intensity kinetic assay.

On to `N#CN1C[C@H]2CCN(C(=O)Nc3cc(Cl)ccc3F)[C@H]2C1`, for which the IC50 (commonly the concentration needed to halve the response being measured) in test [1] is 0.1 to 1 µM.
Turning to `N#CN1CC[C@@H](NC(=O)c2ccc(N3CCOCC3)cc2)C1`, the IC50 in test [2] was 0.1 to 1 µM.
For the molecule `N#Cc1ccc(NC(=O)N2CC[C@@H]3CN(C#N)C[C@@H]32)c(F)c1`, the IC50 in test [1] was 0.1 to 1 µM.
In test [2], `COc1cc(-c2cc(C(=O)N(C)[C@@H]3CCN(C#N)C3)on2)ccn1` returned an IC50 of 0.1 to 1 µM.
On the same count and under the same terms, as for `N#CN1C[C@H]2CCN(C(=O)N3CCc4ccccc43)[C@H]2C1`, the figure is 1 to 10 µM.
